The source of these data is publication PMC7074905, “Multivalent Lactose–Ferrocene Conjugates Based on Poly (Amido Amine) Dendrimers and Gold Nanoparticles as Electrochemical Probes for Sensing Galectin-3” (Nanomaterials, 2020).

The assay concerns the target T1, Human galectin-3 (Gal-3) (Homo sapiens, UniProt P17931).
T1 construct: gene LGALS3; mainly monomeric in solution
The assay is described as follows: isothermal titration calorimetry. It counts as binding. The following applies: 20 mM phosphate pH 7.2, 150 mM NaCl, 25 °C; equal and independent sites model, n = 1.00 buffer and model; tetravalent ligand, n = 0.19 ± 0.05, cross-linking; read-out: K.10^-4 (M^-1). From the text:
isothermal titration calorimetry on Human galectin-3 (Gal-3)
A general note: ITC needs no label: the signal is the heat of the interaction.

T1 sequence (P17931 2-250): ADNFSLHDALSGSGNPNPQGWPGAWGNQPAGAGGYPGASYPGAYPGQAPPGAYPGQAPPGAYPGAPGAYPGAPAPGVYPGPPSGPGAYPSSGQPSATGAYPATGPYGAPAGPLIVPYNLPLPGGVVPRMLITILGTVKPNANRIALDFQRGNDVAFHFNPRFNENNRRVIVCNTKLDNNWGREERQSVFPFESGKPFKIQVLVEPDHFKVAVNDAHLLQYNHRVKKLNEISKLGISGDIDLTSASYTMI

“G0-PAMAM-(COCH2CH2TACH2FcCH2TACH2Lac)4 [compound 12]”: the Kd was determined as 3.14 µM.
